pIC50: −log10 of the molar value. A value given as a limit tells only on which side of the number the result lay.

By pIC50 is commonly meant the negative decadic logarithm of the IC50, by convention in mol/L. Low values mean a high IC50, high ones a low IC50.

The target of the test is T1, HCV NS5B RdRp (Hepatitis C virus genotype 1b, UniProt Q9WMX2).
T1 construct: The protein was expressed with an 18 amino acid C-terminal truncation to enhance the solubility; made in house; host or cells: E. coli BL21(DE3)
T1 sequence (Q9WMX2 2420-2992): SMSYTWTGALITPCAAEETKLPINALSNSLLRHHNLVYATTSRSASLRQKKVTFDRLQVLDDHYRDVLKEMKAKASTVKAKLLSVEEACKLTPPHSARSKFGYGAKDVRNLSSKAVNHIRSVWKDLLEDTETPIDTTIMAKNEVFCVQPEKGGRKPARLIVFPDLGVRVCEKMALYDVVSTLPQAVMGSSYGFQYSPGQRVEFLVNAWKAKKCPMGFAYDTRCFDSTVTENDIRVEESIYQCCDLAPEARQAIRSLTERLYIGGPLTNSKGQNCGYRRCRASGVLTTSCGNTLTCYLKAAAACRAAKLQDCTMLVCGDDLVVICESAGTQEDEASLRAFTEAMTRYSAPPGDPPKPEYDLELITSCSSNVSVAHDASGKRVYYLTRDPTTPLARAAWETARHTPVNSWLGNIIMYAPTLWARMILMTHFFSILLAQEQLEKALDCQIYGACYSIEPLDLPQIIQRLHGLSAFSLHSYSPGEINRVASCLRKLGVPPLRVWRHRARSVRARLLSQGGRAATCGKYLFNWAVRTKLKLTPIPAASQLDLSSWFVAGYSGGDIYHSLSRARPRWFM
Nature of the test: HCV NS5B RdRp enzyme inhibition assay. The format is biochemical. The method, then:
HCV NS5B RdRp cloning, expression, and purification. The cDNA encoding the NS5B protein of HCV, genotype 1b, was cloned into the pET21a expression vector. The protein was expressed with an 18 amino acid C-terminal truncation to enhance the solubility. The E. coli competent cell line BL21(DE3) was used for expression of the protein. Cultures were grown at 37° C. for ˜4 hours until the cultures reached an optical density of 2.0 at 600 nm. The cultures were cooled to 20° C. and induced with 1 mM IPTG. Fresh ampicillin was added to a final concentration of 50 ug/ml and the cells were grown overnight at 20° C.
Cell pellets (3L) were lysed for purification to yield 15–24 mgs of purified NS5B. The lysis buffer consisted of 20 mM Tris-HCl, pH 7.4, 500 mM NaCl, 0.5% triton X-100, 1 mM DTT, 1 mM EDTA, 20% glycerol, 0.5 mg/ml lysozyme, 10 mM MgCl2, 15 ug/ml deoxyribonuclease I, and Complete TM protease inhibitor tablets (Roche). After addition of the lysis buffer, frozen cell pellets were resuspended using a tissue homogenizer. To reduce the viscosity of the sample, aliquots of the lysate were sonicated on ice using a microtip attached to a Branson sonicator. The sonicated lysate was centrifuged at 100,000×g for 1 hr at 4° C. and filtered through a 0.2 μm filter unit (Corning).
The protein was purified using three sequential chromatography steps: Heparin sepharose CL-6B, polyU sepharose 4B, and Hitrap SP sepharose (Pharmacia). The chromatography buffers were identical to the lysis buffer but contained no lysozyme, deoxyribonuclease I, MgCl2 or protease inhibitor and the NaCl concentration of the buffer was adjusted according to the requirements for charging the protein onto the column. Each column was eluted with a NaCl gradient which varied in length from 5–50 column volumes depending on the column type. After the final chromatography step, the resulting purity of the enzyme is >90% based on SDS-PAGE analysis. The enzyme was aliquoted and stored at −80° C.
HCV NS5B RdRp enzyme assay. HCV RdRp genotype 1b assays were run in assay buffer composed of 20 mM Tris-HCl, pH 7.5, 2.5 mM KCl, 5 mM MgCl2, 1 mM DTT, 1.6 U RNAse inhibitor (Promega N2515), in 96 well plates (Falcon 3918). All compounds were serially diluted in DMSO and diluted further in assay buffer such that the final concentration of DMSO in the assay was 2%. Compounds were serially diluted (3-fold each time) for a 7 point inhibition analysis. HCV RdRp genotype 1b enzyme was used at a final concentration of 28 nM. A polyA template was used at 28 nM, and the oligo-dT12-18 primer was used at 840 nM final concentration. Preannealed primer and template were obtained commercially (Amersham 27-787802). ^3H-UTP was used at 0.125 μCi (1 μM total UTP). Reaction was initiated by the addition of enzyme. Reactions were incubated at 30° C. for 45 min, and stopped by adding 30 ul of 20% ice cold TCA. Plates were chilled for 30 minutes and harvested onto Unifilter-96, GF/B plates (Packard, 6005177) using a Packard FilterMate Cell Harvester. The harvest plates were prewashed 3 times, 200 ul/well, with 100 mM NaPPi. Harvested filters were washed 30 times, 200 ul/well, with distilled water followed by ethanol. Filter plates were dried, and 30 ul/well microscint-20 was added. Plates were read on a Packard Top Count NXT.
The IC50 values for compounds were determined using […] different [I], combined with 7 nM enzyme, 800 ng of the template-primer polyC/oligoG12 (1:5 molar ratio), and 0.7 uM of ^3H GTP containing 1 uCi. The observed fractional activity (fa=vi/vo) was used in the equation IC50=[I]/(1/fa-1) to determine a single point IC50 value. Typically, the single point IC50 values derived from [I] that produced fractional activities in the range of 0.1 to 0.8 relative to the uninhibited control were averaged to calculate the IC50 value for each compound.
`CCOC(=O)c1cc(C2CCCCC2)n(-c2ccc(OCc3ccccc3)cc2)n1` [Example 29, Ethyl 1-[4-(benzyloxy)phenyl]-5-cyclohexyl-1H-pyrazole-3-carboxylate] had a pIC50 of less than 4.60.

For the molecule `O=C(O)/C=C/c1cc(-c2ccc(OCc3ccccc3)cc2)n(C2CCCCC2)n1` [Example 3, (2E)-3-[1-cyclohexyl-5-(4-benzyloxyphenyl)-1H-pyrazol-3-yl]-2-propenoic acid], the pIC50 is 4.82.

The molecule `O=C(O)CCc1cc(-c2ccc(OCc3ccccc3)cc2)n(C2CCCCC2)n1` [Example 15, 3-{5-[4-(benzyloxy)phenyl]-1-cyclohexyl-1H-pyrazol-3-yl}propanoic acid] had a negative logarithm of the IC50 (pIC50) of less than 4.60.

`O=C(O)/C=C/c1cn(C2CCCCC2)c(-c2ccc(OCc3ccccc3)cc2)n1` [Example 45, (2E)-3-{2-[4-(benzyloxy)phenyl]-1-cyclohexyl-1H-imidazol-4-yl}-2-propenoic acid] showed a negative-log IC50 (pIC50) of 5.18.

The molecule `COC(=O)CCc1cc(-c2ccc(OCc3ccccc3)cc2)n(C2CCCCC2)n1` [Example 14, Methyl 3-{5-[4-(benzyloxy)phenyl]-1-cyclohexyl-1H-pyrazol-3-yl}propanoate] showed a pIC50 of less than 4.60.

In turn, `COC(=O)/C=C/c1cn(C2CCCCC2)c(-c2ccc(OCc3cc(OC)ccc3-c3ccc(Cl)cc3)cc2)n1` [Example 47, Methyl (2E)-3-(2-{4-[(4′-chloro-4-methoxy-1,1′-biphenyl-2-yl)methoxy]phenyl}-1-cyclohexyl-1H-imidazol-4-yl)-2-propenoate] had a negative-log IC50 (pIC50) of less than 4.60.

On to `COC(=O)/C=C/c1cc(C2CCCCC2)n(-c2ccc(OCc3ccccc3)cc2)n1` [Example 30, Methyl (2E)-3-{1-[4-(benzyloxy)phenyl]-5-cyclohexyl-1H-pyrazol-3-yl}-2-propenoate], for which the negative logarithm of the IC50 (pIC50) was less than 4.60.

The molecule `COc1ccc(-c2ccc(Cl)cc2)c(COc2ccc(-c3cc(C#CC(=O)O)nn3C3CCCCC3)cc2)c1` [Example 21, 3-(5-{4-[(4′-chloro-4-methoxy-1,1′-biphenyl-2-yl)methoxy]phenyl}-1-cyclohexyl-1H-pyrazol-3-yl)-2-propynoic acid] had a pIC50 of 5.64.

For `CCOC(=O)c1cc(-c2ccc(OCc3ccccc3)cc2)n(C2CCCCC2)n1` [Example 1, Ethyl 1-cyclohexyl-5-(4-benzyloxyphenyl)-1H-pyrazole-3-carboxylate], the pIC50 was less than 4.60.

Molecule `C/C(=C\c1cc(C2CCCCC2)n(-c2ccc(OCc3ccccc3)cc2)n1)C(=O)O` [Example 35, (2E)-3-{1-[4-(benzyloxy)phenyl]-5-cyclohexyl-1H-pyrazol-3-yl}-2-methyl-2-propenoic acid] had a negative-log IC50 (pIC50) of less than 4.60.

On to `COc1ccc(-c2ccc(Cl)cc2)c(COc2ccc(-c3cc(CCC(=O)O)nn3C3CCCCC3)cc2)c1` [Example 17, 3-(5-{4-[(4′-chloro-4-methoxy-1,1′-biphenyl-2-yl)methoxy]phenyl}-1-cyclohexyl-1H-pyrazol-3-yl)propanoic acid], for which the negative logarithm of the IC50 (pIC50) was 5.74.

`CCOC(=O)/C(C)=C/c1cc(-c2ccc(OCc3cc(C(=O)OC(C)(C)C)ccc3Br)cc2)n(C2CCCCC2)n1` [Example 10, Ethyl (2E)-3-(5-{4-[(t-butyl-2-bromo-5-phenylcarboxylate)methoxy]phenyl}-1-cyclohexyl-1H-pyrazol-3-yl)-2-methyl-2-propenoate] showed a pIC50 of less than 4.60.

`COC(=O)/C=C/c1nn(C2CCCCC2)c(-c2ccc(OCc3ccccc3)cc2)c1Br` [Example 23, Methyl (2E)-3-{5-[4-(benzyloxy)phenyl]-4-bromo-1-cyclohexyl-1H-pyrazol-3-yl}-2-propenoate] had a pIC50 of less than 4.60.

Regarding `C/C(=C\c1cc(-c2ccc(OCc3ccccc3)cc2)n(C2CCCCC2)n1)C(=O)O` [Example 7, (2E)-3-{5-[4-(benzyloxy)phenyl]-1-cyclohexyl-1H-pyrazol-3-yl}-2-methyl-2-propenoic acid], the negative-log IC50 (pIC50) is 5.00.

In turn, `CCOC(=O)C#Cc1cc(-c2ccc(OCc3cc(OC)ccc3-c3ccc(Cl)cc3)cc2)n(C2CCCCC2)n1` [Example 20, Ethyl 3-(5-{4-[(4′-chloro-4-methoxy-1,1′-biphenyl-2-yl)methoxy]phenyl}-1-cyclohexyl-1H-pyrazol-3-yl)-2-propynoate] had a negative-log IC50 (pIC50) of less than 4.60.

Molecule `COC(=O)/C=C/c1nn(C2CCCCC2)c(-c2ccc(OCc3ccccc3)cc2)c1-c1ccccc1` [Example 25, Methyl (2E)-3-{5-[4-(benzyloxy)phenyl]-1-cyclohexyl-4-phenyl-1H-pyrazol-3-yl}-2-propenate] gave a negative-log IC50 (pIC50) of less than 4.60.

Molecule `CC(C)(C)OC(=O)/C=C/c1cn(C2CCCCC2)c(-c2ccc(OCc3ccccc3)cc2)n1` [Example 44, tert-butyl (2E)-3-{2-[4-(benzyloxy)phenyl]-1-cyclohexyl-1H-imidazol-4-yl}-2-propenoate] had a pIC50 of less than 4.60.

With `CCOC(=O)/C(C)=C/c1cc(-c2ccc(OCc3cc(C(=O)NC)ccc3-c3ccc(Cl)cc3)cc2)n(C2CCCCC2)n1` [Example 12, Ethyl (2E)-3-(5-{4-[(4′-Chloro-4-N-methylcarbamoyl-1,1′-biphenyl-2-yl)methoxy]phenyl}-1-cyclohexyl-1H-pyrazol-3-yl)-2-methyl-2-propenoate], the pIC50 is less than 4.60.

Turning to `COC(=O)/C=C/c1nn(C2CCCCC2)c(-c2ccc(OCc3cc(OC)ccc3-c3ccc(Cl)cc3)cc2)c1-c1ccccc1` [Example 27], the pIC50 is less than 4.60.

With `O=C(O)/C=C/c1nn(C2CCCCC2)c(-c2ccc(OCc3ccccc3)cc2)c1Br` [Example 24, (2E)-3-{5-[4-(benzyloxy)phenyl]-4-bromo-1-cyclohexyl-1H-pyrazol-3-yl}-2-propenoic acid], the negative logarithm of the IC50 (pIC50) is 5.51.

`COC(=O)CCc1cc(C2CCCCC2)n(-c2ccc(OCc3cc(OC)ccc3-c3ccc(Cl)cc3)cc2)n1` [Example 42, Methyl 3-(1-{4-[(4′-chloro-4-methoxy-1,1′-biphenyl-2-yl)methoxy]phenyl}-5-cyclohexyl-1H-pyrazol-3-yl)propanoate] gave a pIC50 of less than 4.60.

For `COC(=O)/C=C/c1cc(-c2ccc(OCc3cc(OC)ccc3-c3ccc(Cl)cc3)cc2)n(C2CCCCC2)n1` [Example 4, Methyl (2E)-3-(5-{4-[(4′-chloro-4-methoxy-1,1′-biphenyl-2-yl)methoxy]phenyl}-1-cyclohexyl-1H-pyrazol-3-yl)-2-propenoate], the negative logarithm of the IC50 (pIC50) is less than 4.60.

In turn, `CNC(=O)c1ccc(-c2ccc(Cl)cc2)c(COc2ccc(-c3nc(/C=C(\C)C(=O)OC(C)(C)C)cn3C3CCCCC3)cc2)c1` [Example 53, Butoxy^t (2E)-3-(2-{4-[(4′-chloro-4-N-methylcarbamoyl-1,1′-biphenyl-2-yl)methoxy]phenyl}-1-cyclohexyl-1H-imidazol-4-yl)-2-methyl-2-propenoate] had a pIC50 of less than 4.60.

The molecule `COc1ccc(-c2ccc(Cl)cc2)c(COc2ccc(-n3nc(CCC(=O)O)cc3C3CCCCC3)cc2)c1` [Example 43, 3-(1-{4-[(4′-chloro-4-methoxy-1,1′-biphenyl-2-yl)methoxy]phenyl}-5-cyclohexyl-1H-pyrazol-3-yl)propanoic acid] showed a pIC50 of 6.51.

In the case of `CCOC(=O)c1nn(C2CCCCC2)c(-c2ccc(OCc3ccccc3)cc2)c1Br` [Example 22, Ethyl 5-[4-(benzyloxy)phenyl]-4-bromo-1-cyclohexyl-1H-pyrazole-3-carboxylate], the pIC50 was less than 4.60.

The record behind these values is patent US7112601B2, “Cycloalkyl heterocycles for treating hepatitis C virus” (priority 2003, dated 2006).
